Converted amounts (≈) assume the structure as drawn. Read-outs that look alike come from different tables or passages of the source. Residues, ends and D or L forms follow the SMILES beside them.
Key:
ETa = ETa (Homo sapiens (Human), UniProt P25101); experiment: Calcium flux assay on ETa cell line; format: cell-based; settings: ETa/HEK293, calcium flux, endothelin-1 agonist
Protocol: (§1) Test materials: a) cell line: ETa/HEK293; b) vehicles: DMEM, Invitrogen (Cat #11960); Geneticin, Invitrogen (Cat #10131); c) reagent: Fluo-4 Direct, (Invitrogen, Cat #F10471); d) instruments: 384 well Poly-D-Lysine protein coating plate, Greiner #781946; Vi-cell XR Cell Viability Analyzer, Beckman Coulter; Incubator, Thermo.
For the employed agonist endothelin factor (endothelin-1, ET-1) master plate: the agonist was diluted from 50 μM to 15 μM with the test buffer solution.
For antagonist (BQ123, Am J Physiol. 1994 April; 266 (4 Pt 2): H1327-31.) plates and the compound plates: the antagonist and the tested compounds were diluted with DMSO at a gradient ratio of 1:4 to obtain 10 concentration points. Afterwards, 900 nL of each compound solution was transferred to the master plate and 30 μL of the test buffer solution was added. • a) The cell line was removed from the incubator, and 20 μL of 2X Fluo-4 Direct™ buffer solution was added gently by a pipette to a 384-well cell culture plate. • b) The cell plate was incubated at 37° C. for 50 min in the environment of 5% CO2, and then incubated at room temperature for 10 min. • c) The cell plate was removed from the incubator and placed in FLIPR. The compound plates and the tip box were placed in FLIPR. • d) Regarding the EC80 plate: • 1) Operations were conducted on […]. • 2) 10 μL of compound solution was transferred from the EC80 master plate to the cell plate. • 3) Fluorescence signals were read. • 4) The read signals were counted, and the EC80 value of each cell line was calculated using FLIPR. • 5) For the concentration of the compound plate, a solution having a concentration 6 times that of the reference agonist EC80 was formulated. • e) Regarding the compound plate: • 1) Operations were conducted on […]. • 2) 10 μL of compound was transferred to the cell plate. • 3) Fluorescence signals were read. • 4) 10 μL of solution having a concentration 6 times that of the reference agonist EC80 was transferred to the cell plate. • 5) Fluorescence signals were read. • f) Data analysis by Prism

AT1 = AT1 (Homo sapiens (Human), UniProt P30556); experiment: Calcium flux assay on AT1 cell line; format: cell-based; settings: AT1/HEK293, calcium flux, angiotensin II agonist
Protocol: as §1, with “AT1/HEK293;” for “ETa/HEK293;”, “F12,” for “DMEM,”, “#11765-047); FBS, Corning (Cat #35-076-CV);” for “#11960);”
For the agonist (angiotensin II) master plate, the agonist solution was diluted from 1 mM to 200 μM with the test buffer solution. […] Afterwards, 900 nL of each compound solution was transferred to the master plate and 30 μL of the test buffer solution was added. • a) The cell plate was removed from the incubator, and 20 μL of 2X Fluo-4 Direct was added by a pipette to a 384-well cell plate. • b) The cell plate was incubated at 37° C. for 50 min in the environment of 5% CO2, and then incubated at room temperature for 10 min. • c) The cell plate was removed from the incubator and placed in FLIPR. The compound plates and the tip box were placed in FLIPR. • d) Regarding the EC80 plate: • 1) Operations were conducted on […]. • 2) 10 μL of compound solution was transferred from the EC80 master plate to the cell plate. • 3) Fluorescence signals were read. • 4) The read signals were counted, and the EC80 value of each cell line was calculated using FLIPR. • 5) For the concentration of the compound plate, a solution having a concentration 6 times that of the reference agonist EC80 was formulated. • e) Regarding the compound plate: • 1) Operations were conducted on […]. • 2) 10 μL of compound was transferred to the cell plate. • 3) Fluorescence signals were read. • 4) 10 μL of solution having a concentration 6 times that of the reference agonist EC80 was transferred. • 5) Fluorescence signals were read. • f) Data analysis by Prism

[1] = Experiment on water solubility (HPLC-UV); format: physicochemical
Protocol: The detection was carried out in accordance with the high performance liquid chromatography (General Principles 0512 of Chinese Pharmacopoeia Volume IV (2020)):
Chromatographic conditions for the HPLC-UV method: mobile phase: 0.02 M KH2PO4 aqueous solution-acetonitrile (90:10), gradient elution; chromatographic column: C18; detection wavelength: 210 nm. The water solubility was calculated based on the peak area by the external standard method.

Chain of ETa (P25101 21-427): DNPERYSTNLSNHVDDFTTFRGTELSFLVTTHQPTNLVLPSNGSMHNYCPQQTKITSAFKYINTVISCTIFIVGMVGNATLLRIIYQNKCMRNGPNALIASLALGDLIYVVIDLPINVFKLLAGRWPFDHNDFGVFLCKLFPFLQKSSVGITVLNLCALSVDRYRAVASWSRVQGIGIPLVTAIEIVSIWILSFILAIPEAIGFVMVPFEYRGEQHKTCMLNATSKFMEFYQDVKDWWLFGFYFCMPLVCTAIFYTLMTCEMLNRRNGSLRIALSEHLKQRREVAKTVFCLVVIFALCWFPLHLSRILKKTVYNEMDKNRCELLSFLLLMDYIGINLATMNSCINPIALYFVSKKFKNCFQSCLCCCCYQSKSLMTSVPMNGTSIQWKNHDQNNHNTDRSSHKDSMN
Chain of AT1 (P30556 whole entry): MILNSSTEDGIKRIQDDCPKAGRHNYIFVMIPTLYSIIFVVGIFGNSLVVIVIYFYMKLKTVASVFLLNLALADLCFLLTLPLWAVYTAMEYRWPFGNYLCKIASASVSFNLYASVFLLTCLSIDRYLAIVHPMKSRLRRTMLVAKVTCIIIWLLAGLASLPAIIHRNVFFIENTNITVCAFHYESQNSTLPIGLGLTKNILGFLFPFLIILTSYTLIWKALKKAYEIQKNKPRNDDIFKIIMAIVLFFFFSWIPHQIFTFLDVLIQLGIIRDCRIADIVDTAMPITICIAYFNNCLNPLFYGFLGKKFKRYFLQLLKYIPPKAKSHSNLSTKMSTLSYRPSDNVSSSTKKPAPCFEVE

Row | IC50 (ETa; read-out: IC50 against ETa) | IC50 (AT1; read-out: IC50 against AT1) | solubility ([1]; aqueous medium at pH 7.4 (buffer not named), pH 7.4, aqueous buffer, pH7.4, read-out: Solubility pH7.4) | solubility ([1]; pH 1.6, fassgf or other biorelevant, FaSSGF (pH1.6), read-out: Solubility FaSSGF (pH1.6)) | solubility ([1]; pH 5, FeSSIF (pH5.0), read-out: Solubility FeSSIF (pH5.0)) | solubility ([1]; pH 6.5, FaSSIF (pH6.5), read-out: Solubility FaSSIF (pH6.5)) | IC50 (AT1; read-out: IC50 activity against AT1 (class)) | Structure (SMILES) | IC50 (ETa; read-out: IC50 activity against ETa (class))
1 | 17.6 nM | 258 nM | – | – | – | – | – | CCCCC1=N[C@]2(C[C@H]3C[C@H]3C2)C(=O)N1Cc1ccc(-c2ccccc2S(=O)(=O)Nc2noc(C)c2C)c(CN(C)C(=O)CC(C)(C)C)c1 [Example 6] | –
2 | 24.6 nM | 2.9 nM | 370 µg/mL (≈ 612 µM) | > 1000 µg/mL | 200 µg/mL (≈ 331 µM) | 610 µg/mL (≈ 1010 µM) | – | CCCCC1=NC2(CC3(CC3)C2)C(=O)N1Cc1ccc(-c2ccccc2S(=O)(=O)Nc2noc(C)c2C)c(COCC)c1 [Example 1] | –
3 | 132 nM | 4.78 nM | – | – | – | – | 1 to 10 nM | CCCCC1=N[C@]2(C[C@H]3C[C@H]3C2)C(=O)N1Cc1ccc(-c2ccccc2S(=O)(=O)Nc2noc(C)c2C)c(COCC)c1 [Example 4] | –

Row | Structure (SMILES) | IC50 (ETa; read-out: IC50 against ETa) | IC50 (AT1; read-out: IC50 against AT1) | solubility ([1]; aqueous medium at pH 7.4 (buffer not named), pH 7.4, aqueous buffer, pH7.4, read-out: Solubility pH7.4) | solubility ([1]; pH 1.6, fassgf or other biorelevant, FaSSGF (pH1.6), read-out: Solubility FaSSGF (pH1.6)) | solubility ([1]; pH 5, FeSSIF (pH5.0), read-out: Solubility FeSSIF (pH5.0)) | solubility ([1]; pH 6.5, FaSSIF (pH6.5), read-out: Solubility FaSSIF (pH6.5)) | IC50 (AT1; read-out: IC50 activity against AT1 (class)) | IC50 (ETa; read-out: IC50 activity against ETa (class))
4 | CC(C)C[C@@H]1NC(=O)[C@@H](C(C)C)NC(=O)[C@@H]2CCCN2C(=O)[C@@H](CC(=O)O)NC(=O)[C@@H](Cc2c[nH]c3ccccc23)NC1=O [BQ123, reference compound] (HELM PEPTIDE1{L.[dW].[dD].P.[dV]}$PEPTIDE1,PEPTIDE1,1:R1-5:R2$$$V2.0) | 2.56 nM | – | – | – | – | – | – | 1 to 10 nM
